The record followed here is patent publication US9695129B2, “Parasiticidal compositions comprising benzimidazole derivatives, methods and uses thereof” (MERIAL INC., priority 2012, dated 2017).

The first experiment has as its system adult F. hepatica. Put plainly: In vitro test on adult F. hepatica (viability scale, effective concentration). Also noted: species or system Fasciola hepatica. To be noted: Fasciola hepatica, 72 h, read-out: Effective in vitro concentration. Here is the method:
Representative compounds of formula (I), formula (II), and formula (III) were tested in vitro against F. hepatica as follows. Adult F. hepatica (fluke) were collected from infected bovine livers obtained from a local abattoir (Basel, Switzerland). The worms were quickly washed with 0.9% (w/v) NaCl and placed in 6 or 12-well plates (Costar). Culture medium in each well contained RPMI 1640 (Gibco) at 37° C., which was supplemented with antibiotics (50 μg/ml streptomycin and 50 IU/ml penicillin; Gibco) and 80 μg/ml of a haemin solution. The haemin solution was prepared as follows: 5 mg haemin was dissolved in 1 ml of 0.1M aqueous solution of NaOH, and 3.95 ml of PBS (pH=7.4) and 0.05 ml of 1M HCl were added to adjust the pH to 7.1-7.4 (Keiser and Morson, 2008). Cultures were kept at 37° C. in an atmosphere of 5% CO2. To monitor the temporal effects of test compounds in vitro, 3 flukes were incubated for 72 h in the presence of 50 or 100 μg/ml of each test compound. At 24, 48, and 72 h, worms were examined using a dissecting microscope. For the adult worms, a viability scale ranging from 4 (normal movements) to 1 (death; no movement observed for two min using a microscope) was used.
Table 1 lists representative compounds of formula (I) of the present invention and their effective in vitro concentrations against F. hepatica. All compounds were tested in vitro on the adult stage of F. hepatica as described above. Each data point refers to at least two independent experiments. For Table 1, R2 is H, R4 is Cl and R5 is H.
Table 2 lists representative compounds of formula (II) of the present invention and their effective in vitro concentrations against F. hepatica. All compounds were tested in vitro on the adult stage of F. hepatica as described above. Each data point refers to at least two independent experiments. For Table 2 compounds, the 2-position of the benzimidazole ring is methylthio, R6 is H and R9 is H.
Table 3 lists representative compounds of formula (III) of the present invention and their effective in vitro concentrations against F. hepatica. All compounds were tested in vitro on the adult stage of F. hepatica as described above. Each data point refers to at least two independent experiments. For Table 3, the 2-position of the benzimidazole ring is trifluoromethylthio, R10 is H and R13 is H.
With `FC(F)(F)c1nc2cc(Cl)c(-c3cc(Cl)cc(Cl)c3)cc2[nH]1` [Compound 247, 6-chloro-5-(3,5-dichlorophenyl)-2-trifluoromethylbenzimidazole], the minimal effective concentration is 5 µg/mL.

Regarding `Fc1ccc(Oc2cc3[nH]c(C(F)(F)C(F)(F)C(F)(F)F)nc3cc2Cl)c(F)c1` [Compound 279, 5-chloro-6-(2,4-difluorophenoxy)-2-(heptafluoropropyl)-1H-1,3-benzodiazole], the minimal effective concentration was below 5 µg/mL.

For `FC(F)(F)Sc1nc2cc(Cl)c(-c3ccc(Cl)cc3)cc2[nH]1` [Compound 102, 6-chloro-5-(4-chlorophenyl)-2-trifluoromethylthiobenzimidazole], the minimal effective concentration worked out at 5 µg/mL.

Regarding `FC(F)(F)Sc1nc2cc(Cl)c(-c3cccc(Cl)c3)cc2[nH]1` [Compound 103, 6-chloro-5-(3-chlorophenyl)-2-trifluoromethylthiobenzimidazole], the minimal effective concentration amounted to 5 µg/mL.

Regarding `FC(F)(F)c1nc2cc(Cl)c(-c3cc(Cl)cc(Cl)c3Cl)cc2[nH]1` [Compound 261, 6-chloro-5-(2,3,5-trichlorophenyl)-2-trifluoromethylbenzimidazole], the minimal effective concentration was determined as 5 µg/mL.

With `Fc1ccc(Oc2cc3[nH]c(C(F)(F)C(F)(F)C(F)(F)F)nc3cc2Cl)cc1` [Compound 284, 5-chloro-6-(4-fluorophenoxy)-2-(heptafluoropropyl)-1H-1,3-benzodiazole], the minimal effective concentration came out at 5 µg/mL.

Still in this experiment, the particulars now being: Fasciola hepatica; Table 1, formula (I); adult flukes incubated up to 72 h; at least two independent experiments; read-out: Effective in vitro concentration.
In the case of `Fc1ccc(Oc2cc3[nH]c(C(F)(F)C(F)(F)F)nc3cc2Cl)c(F)c1` [Compound 278, 5-chloro-6-(2,4-difluorophenoxy)-2-(pentafluoroethyl)-1H-1,3-benzodiazole], the minimal effective concentration was below 5 µg/mL.

Regarding `FC(F)(F)c1cc(Cl)ccc1-c1cc2[nH]c(C(F)(F)C(F)(F)F)nc2cc1Cl` [Compound 305, 5-chloro-6-[4-chloro-2-(trifluoromethyl)phenyl]-2-(pentafluoroethyl)-1H-1,3-benzodiazole], the minimal effective concentration stood at 20 µg/mL.

Take `FC(F)(F)c1nc2cc(Cl)c(-c3ccc(Cl)cc3Cl)cc2[nH]1` [Compound 260, 6-chloro-5-(2,4-dichlorophenyl)-2-trifluoromethylbenzimidazole]: the minimal effective concentration was determined as 5 µg/mL.

Regarding `FC(F)(F)c1ccc(Oc2cc3[nH]c(C(F)(F)C(F)(F)F)nc3cc2Cl)cc1` [Compound 287, 5-chloro-2-(pentafluoroethyl)-6-[4-(trifluoromethyl)phenoxy]-1H-1,3-benzodiazole], the minimal effective concentration was 50 µg/mL.

Take `FC(F)(F)c1ccc(-c2cc3[nH]c(C(F)(F)C(F)(F)F)nc3cc2Cl)cc1` [Compound 289, 5-chloro-2-(pentafluoroethyl)-6-[4-(trifluoromethyl)phenyl]-1H-1,3-benzodiazole]: the minimal effective concentration is below 2.5 µg/mL.

Turning to `FC(F)(F)c1ccc(-c2cc3[nH]c(C(F)(F)C(F)(F)F)nc3cc2Cl)c(Cl)c1` [Compound 308, 5-chloro-6-[2-chloro-4-(trifluoromethyl)phenyl]-2-(pentafluoroethyl)-1H-1,3-benzodiazole], the minimal effective concentration is below 10 µg/mL.

Regarding `FC(F)(F)c1ccc(-c2cc3[nH]c(C(F)(F)F)nc3cc2Cl)c(C(F)(F)F)c1` [Compound 301, 6-[2,4-bis(trifluoromethyl)phenyl]-5-chloro-2-(trifluoromethyl)-1H-1,3-benzodiazole], the minimal effective concentration is below 10 µg/mL.

Consider `Fc1ccc(Oc2cc3[nH]c(C(F)(F)F)nc3cc2Cl)c(F)c1` [Compound 277, 5-chloro-6-(2,4-difluorophenoxy)-2-(trifluoromethyl)-1H-1,3-benzodiazole], for which the minimal effective concentration came out at 10 µg/mL.

As to `FC(F)(F)C(F)(F)c1nc2cc(Cl)c(Oc3ccc(Cl)cc3Cl)cc2[nH]1` [Compound 276, 5-chloro-6-(2,4-dichlorophenoxy)-2-(pentafluoroethyl)-1H-1,3-benzodiazole], the minimal effective concentration is below 5 µg/mL.

For the compound `FC(F)(F)c1ccc(-c2cc3[nH]c(C(F)(F)C(F)(F)C(F)(F)F)nc3cc2Cl)c(Cl)c1` [Compound 309, 5-chloro-6-[2-chloro-4-(trifluoromethyl)phenyl]-2-(heptafluoropropyl)-1H-1,3-benzodiazole], the minimal effective concentration was determined as 20 µg/mL.

Consider `FC(F)(F)c1nc2cc(Cl)c(Oc3ccc(Cl)cc3Cl)cc2[nH]1` [Compound 275, 5-chloro-6-(2,4-dichlorophenoxy)-2-(trifluoromethyl)-1H-1,3-benzodiazole], for which the minimal effective concentration came to 10 µg/mL.

For `Fc1ccc(-c2cc3[nH]c(C(F)(F)F)nc3cc2Cl)cc1` [Compound 280, 5-chloro-6-(4-fluorophenyl)-2-(trifluoromethyl)-1H-1,3-benzodiazole], the minimal effective concentration worked out at 20 µg/mL.

On to `FC(F)(F)c1nc2cc(Cl)c(-c3ccc(Cl)cc3C(F)(F)F)cc2[nH]1` [Compound 304, 5-chloro-6-[4-chloro-2-(trifluoromethyl)phenyl]-2-(trifluoromethyl)-1H-1,3-benzodiazole], for which the minimal effective concentration stood at 20 µg/mL.

For `FC(F)(F)c1cc(Cl)ccc1-c1cc2[nH]c(C(F)(F)C(F)(F)C(F)(F)F)nc2cc1Cl` [Compound 306, 5-chloro-6-[4-chloro-2-(trifluoromethyl)phenyl]-2-(heptafluoropropyl)-1H-1,3-benzodiazole], the minimal effective concentration amounted to 20 µg/mL.

On to `Fc1ccc(Oc2cc3[nH]c(C(F)(F)C(F)(F)F)nc3cc2Cl)cc1` [Compound 283, 5-chloro-6-(4-fluorophenoxy)-2-(pentafluoroethyl)-1H-1,3-benzodiazole], for which the minimal effective concentration is below 2.5 µg/mL.

With `FC(F)(F)c1ccc(-c2cc3[nH]c(C(F)(F)C(F)(F)F)nc3cc2Cl)c(C(F)(F)F)c1` [Compound 302, 6-[2,4-bis(trifluoromethyl)phenyl]-5-chloro-2-(pentafluoroethyl)-1H-1,3-benzodiazole], the minimal effective concentration is below 2.5 µg/mL.

As to `FC(F)(F)c1ccc(Oc2cc3[nH]c(C(F)(F)C(F)(F)C(F)(F)F)nc3cc2Cl)cc1` [Compound 288, 5-chloro-2-(heptafluoropropyl)-6-[4-(trifluoromethyl)phenoxy]-1H-1,3-benzodiazole], the minimal effective concentration came out at 20 µg/mL.

Regarding `FC(F)(F)C(F)(F)c1nc2cc(Cl)c(-c3cccc(Cl)c3Cl)cc2[nH]1` [Compound 262-100, 5-chloro-6-(2,3-dichlorophenyl)-2-(pentafluoroethyl)-1H-1,3-benzodiazole], the minimal effective concentration worked out at 10 µg/mL.

Regarding `FC(F)(F)c1ccc(Oc2cc3[nH]c(C(F)(F)C(F)(F)F)nc3cc2Cl)c(Cl)c1` [Compound 296, 5-chloro-6-[2-chloro-4-(trifluoromethyl)phenoxy]-2-(pentafluoroethyl)-1H-1,3-benzodiazole], the minimal effective concentration was below 2.5 µg/mL.

Turning to `Fc1ccc(-c2cc3[nH]c(C(F)(F)C(F)(F)F)nc3cc2Cl)cc1` [Compound 281, 5-chloro-6-(4-fluorophenyl)-2-(pentafluoroethyl)-1H-1,3-benzodiazole], the minimal effective concentration is 5 µg/mL.

As to `FC(F)(F)c1ccc(Oc2cc3[nH]c(C(F)(F)F)nc3cc2Cl)cc1` [Compound 286, 5-chloro-2-(trifluoromethyl)-6-[4-(trifluoromethyl)phenoxy]-1H-1,3-benzodiazole], the minimal effective concentration came out at 20 µg/mL.

With `FC(F)(F)c1ccc(-c2cc3[nH]c(C(F)(F)F)nc3cc2Cl)c(Cl)c1` [Compound 307, 5-chloro-6-[2-chloro-4-(trifluoromethyl)phenyl]-2-(trifluoromethyl)-1H-1,3-benzodiazole], the minimal effective concentration is below 2.5 µg/mL.

Still in this experiment, the particulars now being: Fasciola hepatica; Table 2, formula (II); adult flukes incubated up to 72 h; at least two independent experiments; read-out: Effective in vitro concentration.
Turning to `CSc1nc2cc(Cl)c(Oc3ccccc3Br)cc2[nH]1` [Compound 014, 6-chloro-5-(2-bromophenoxy)-2-methylthiobenzimidazole], the minimal effective concentration came out at 50 µg/mL.

Turning to `CSc1nc2cc(Cl)c(Oc3cccc(C)c3C)cc2[nH]1` [Compound 019, 6-chloro-5-(2,3-dimethylphenoxy)-2-methylthiobenzimidazole], the minimal effective concentration worked out at 20 µg/mL.

The experiment is the same for the next values; noted with them: Fasciola hepatica; Table 3, formula (III); adult flukes incubated up to 72 h; at least two independent experiments; read-out: Effective in vitro concentration.
Take `FC(F)(F)Sc1nc2cc(Cl)c(Oc3cccc(Cl)c3Cl)cc2[nH]1` [Compound 049, 6-chloro-5-(2,3-dichlorophenoxy)-2-trifluoromethylthiobenzimidazole]: the minimal effective concentration was found to be 10 µg/mL.

Still in this experiment, the particulars now being: Table 3, formula (III); adult flukes incubated up to 72 h; at least two independent experiments.
For the compound “6-chloro-5-(2-butyl)-cyclopropyl-2-trifluoromethylthiobenzimidazole [Compound 108]”, the “Effective in vitro concentration” value amounted to 10 µg/mL.
